Laboratory results published in patent US11299472B2, “Fumarate salt of (R)-3-(1-(2,3-dichloro-4-(pyrazin-2-yl)phenyl)-2,2,2- trifluoroethyl)-1-methyl-1-(1-methylpiperidin-4-yl) urea, methods of preparation, and uses thereof” (Helsinn Healthcare SA, priority 2017, dated 2022).

Columns and labels:
Assay type in all cases: in vivo
[1] = Rat pharmacokinetic study, single oral HM04 fumarate salt 3, 10, 30 mg/kg (Example 10); details: male, Sprague Dawley, plasma, 3 mg/kg intravenous, four rats, read-out: mean AUC following intravenous administration
[2] = tested on: Snord116+/− (Het) mice and wild-type (WT) littermates; test: Food intake and body weight after daily administration in Prader-Willi mouse model
Source text: (§1) The effect of HM04 fumarate salt on food intake behavior and glucose tolerance was investigated in the Snord116+/−(Het) mouse genetic model of Prader-Willi syndrome (Het mouse) compared to wild-type (WT) littermates. Since D2R agonists suppress food intake, the FDA approved D2R agonist cabergoline was used as an experimental control. Phenotypic characteristics of this PWS mouse model include hyperphagia, postnatal growth retardation, high ghrelin, and low growth hormone. Ding F., et al. SnoRNA Snord116 (Pwcr1/MBII-85) deletion causes growth deficiency and hyperphagia in mice. PloS one. 2008; 3(3):e1709. These PWS mice eat more frequently than WT littermates, particularly during the light cycle and are more motivated to work for food (more level presses) (data not shown).
Food intake and body weight were measured daily.

[3] = tested on: Snord116+/− (Het) mice and wild-type (WT) littermates; test: Glucose tolerance in Prader-Willi mouse model
Source text: as §1

[4] = 6-month-old Het mice, HM04 10 mg/kg i.p. daily at 07.00 hours for 10 days
[5] = 6-month-old WT mice, HM04 10 mg/kg i.p. daily at 07.00 hours for 10 days
[6] = 8-month-old Het mice, HM04 30 mg/kg oral daily at 07.00 hours for 5 days
[7] = 8-month-old Het mice, HM04 30 mg/kg oral daily at 18.00 hours for 5 days
[8] = 8-month-old WT mice, HM04 30 mg/kg oral daily at 07.00 hours for 5 days

AUC [1] [ng·h/mL] | SMILES | body weight [2, 4] | food intake [2, 4] | body weight [2, 5] | food intake [2, 5] | body weight [2, 6] | food intake [2, 6] | food consumption during the dark cycle [2, 7] | food intake during the subsequent light cycle (06.00-18.00) [2, 7] | body weight [2, 8] | food intake [2, 8] | food consumption during the dark cycle ([2]; 8-month-old WT mice, HM04 30 mg/kg oral daily at 18.00 hours for 5 days) | glucose tolerance ([3]; Het mice) | glucose tolerance ([3]; WT mice)
1760 ± 196 | CN1CCC(N(C)C(=O)N[C@H](c2ccc(-c3cnccn3)c(Cl)c2Cl)C(F)(F)F)CC1.O=C(O)/C=C/C(=O)O [HM04 fumarate salt, (R)-3-(1-(2,3-dichloro-4-(pyrazin-2-yl)phenyl)-2,2,2-trifluoroethyl)-1-methyl-1-(1-methylpiperidin-4-yl)urea fumarate salt] | – | – | – | – | – | – | – | – | – | – | – | – | –
– | CN1CCC(N(C)C(=O)N[C@H](c2ccc(-c3cnccn3)c(Cl)c2Cl)C(F)(F)F)CC1 [HM04, (R)-3-(1-(2,3-dichloro-4-(pyrazin-2-yl)phenyl)-2,2,2-trifluoroethyl)-1-methyl-1-(1-methylpiperidin-4-yl)urea] | no apparent effect | no apparent effect | no apparent effect | no apparent effect | unaffected | significant decrease in food intake was observed by day 2, but not on subsequent days | suppression of food consumption was not observed | food intake was lower in HM04-treated Het mice, but not WT mice on days 2, 3, 4, and 5 and reached significance on day 5 | No reduction in food intake or body weight | No reduction in food intake | suppression of food consumption was not observed | did not show an improvement in glucose tolerance | an effect was observed
